“Also recorded” adds a separate entry of the source.

Data set [1] in a line: Phase I clinical studies of intravenous Karenitecin (safety, dose-limiting toxicity). The data set is classed as in vivo, human. As for the experimental part:
Results from three Phase I studies indicate that Karenitecin can be safely administered to patients at the dose level of 1.0 mg/m^2/day I.V. over a one hour period of time for 5 consecutive days in a 3-week treatment cycle. […] Any gastrointestinal toxicity is generally ≤grade 2 and is not dose-limiting.
Intravenous administration of Karenitecin has been evaluated in three Phase I clinical studies in patients with the following cancer types: (i) advanced solid tumors (adult patients) (see, e.g., Schilsky, R. L., Hausheer, F. H., et al., Phase I trial of Karenitecin administered intravenously daily for five consecutive days in patients with advanced solid tumors using accelerated dose titration [abstract]. ASCO Abstract 758 (2000)); (ii) refractory or recurrent solid tumors (pediatric patients); and (iii) recurrent malignant glioma (adult patients). […]

The conditions of data set [2]: human, in vivo.
Method: The Primary Endpoint of the disclosed Phase III clinical study was Progression Free Survival (“PFS”); which was defined as the time period from the date of randomization to the date of first radiographically documented Progressive Disease (“PD”) or date of death due to any cause, taking either event date that occurred first. The date of PD was determined by radiographical objective disease (RECIST) measurement method. The Secondary Endpoints of the disclosed Phase III clinical study included: (i) Overall Survival (hereinafter “OS”), defined as the time from the date of randomization to the date of death due to any cause; (ii) Incidence of anemia, defined as the proportion of patients who experience ≥grade 3 anemia based on National Cancer Institute Common Terminology Criteria for Adverse Events (NCI-CTCAE) criteria at any time post-baseline after receiving study treatment; (iii) Incidence of neutropenia (including febrile neutropenia), defined as the proportion of patients who experience ≥grade 3 neutropenia based on NCI-CTCAE criteria at any time post-baseline after receiving study treatment; and (iv) Incidence of thrombocytopenia, defined as the proportion of patients who experience ≥grade 3 thrombocytopenia based on NCI-CTCAE criteria at any time post-baseline after receiving study treatment.
The primary endpoint was Progression Free Survival (PFS); defined as the time period from the date of randomization to the date of first radiographically documented progressive disease (PD) or date of death due to any cause, taking the event date that occurs first. The date of PD was determined by radiographically objective disease (RECIST) measurement. […]
Simultaneous statistical analyses were performed on the clinical trial data from the time points when 254 and 338 Progression Free Survival (PFS) events occurred during the aforementioned Karenitecin Phase III Trial and the following results were observed. […] The PFS benefit for Karenitecin in comparison to Topotecan was determined using an Independent Review Committee (IRC).
The conditions of data set [3]: dog, in vivo, po.
Data set [4] deals with T1, Topoisomerase I (Homo sapiens, UniProt P11387).
T1 sequence (P11387 1-765): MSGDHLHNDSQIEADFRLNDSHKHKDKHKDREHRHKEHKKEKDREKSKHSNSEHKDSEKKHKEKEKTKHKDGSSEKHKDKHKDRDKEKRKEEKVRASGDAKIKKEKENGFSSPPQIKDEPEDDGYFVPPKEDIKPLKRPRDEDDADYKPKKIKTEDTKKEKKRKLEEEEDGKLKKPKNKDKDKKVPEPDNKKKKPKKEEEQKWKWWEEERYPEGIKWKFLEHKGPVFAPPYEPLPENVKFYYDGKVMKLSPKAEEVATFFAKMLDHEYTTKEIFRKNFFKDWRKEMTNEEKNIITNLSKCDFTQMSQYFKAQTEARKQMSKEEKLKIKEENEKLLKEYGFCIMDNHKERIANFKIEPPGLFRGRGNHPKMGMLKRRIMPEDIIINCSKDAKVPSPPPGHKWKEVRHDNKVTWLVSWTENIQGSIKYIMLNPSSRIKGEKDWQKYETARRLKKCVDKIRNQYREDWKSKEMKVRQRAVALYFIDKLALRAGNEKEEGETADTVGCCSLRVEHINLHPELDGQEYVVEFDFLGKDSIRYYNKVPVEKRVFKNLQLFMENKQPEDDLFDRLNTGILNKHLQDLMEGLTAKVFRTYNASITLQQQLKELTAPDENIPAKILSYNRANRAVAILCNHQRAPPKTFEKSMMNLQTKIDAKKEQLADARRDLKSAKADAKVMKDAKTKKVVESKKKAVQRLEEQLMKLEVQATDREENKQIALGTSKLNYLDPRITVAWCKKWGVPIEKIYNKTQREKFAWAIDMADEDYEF
As to the kind of experiment: Topoisomerase I inhibition. Type of data set: biochemical.

As for `CC[C@@]1(O)C(=O)OCc2c1cc1n(c2=O)Cc2c-1nc1ccccc1c2CC[Si](C)(C)C` [Karenitecin, (4S)-4-ethyl-4-hydroxy-11-[2-(trimethylsilyl)ethyl]-1H-pyrano[3′:4′:6,7]indolizino[1,2-b]quinoline-3,14(4H,12H)-dione], in data set [1] (Phase I, 1.0 mg/m^2/day I.V. over one hour, 5 consecutive days, 3-week cycle), the “principal and dose-limiting toxicity” value is “non-cumulative, reversible myelosuppression; also recorded: reversible and non-cumulative neutropenia and thrombocytopenia”. Also, the “serious hypersensitivity reactions reported by patients” value in data set [1] (patients receiving Karenitecin to date) is on record as “no serious hypersensitivity reactions”. In data set [2] (female, 5 days), the “Grade 3 or 4 anemia events reduced in comparison to the Topotecan arm” value was 27.3%, the “Grade 3 or 4 thrombocytopenia events reduced in comparison to the Topotecan arm” value came to 37.4% and the “grade 4 neutropenia reduced in comparison to the Topotecan arm” value worked out at 38.2%. In addition, in data set [2], the “safety concerns as monitored by the independent Data and Safety Monitoring Board (DSMB)” value was “no safety concerns related to Karenitecin were noted”. In data set [3], the toxicities observed entry was “anorexia; weight loss; gastrointestinal toxicity (manifested as diarrhea with hemorrhage); occasional vomiting; and myelosuppression”. The “Topoisomerase I inhibition” value in data set [4] was “potent inhibitor of Topoisomerase I”.

Source of the values: US10413538B2, “Administration of karenitecin for the treatment of platinum and/or taxane chemotherapy-resistant or -refractory advanced ovarian cancer” (priority 2013, dated 2019).
